Values joined by “and” are separate entries in the source; they are usually repeats but may differ in a detail not shown here. Equal entries are not always repeated. Toxic doses and inconclusive results are not listed.
Tested on: L1210 leukemia ip in BDF1 mice, survival T/C
Assay: NCI In Vivo Anticancer Drug Screen. Data for tumor model L1210 Leukemia (intraperitoneal) in B6D2F1 (BDF1) mice
Settings: endpoint: mean survival time, higher = longer survival
How it was run: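 Antitumor effect is assessed in tumor-bearing animals. Survival in the compound arm is compared with a vehicle-dosed control arm and expressed as their quotient.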

[1] = dose: 100.0 mg/kg/injection, schedule: Q01DX001 (ip), vehicle: saline with Tween-80
[2] = dose: 100.0 mg/kg/injection, schedule: Q04DX003 (ip), vehicle: saline with Tween-80
[3] = dose: 200.0 mg/kg/injection, schedule: Q01DX001 (ip), vehicle: saline with Tween-80
[4] = dose: 200.0 mg/kg/injection, schedule: Q04DX003 (ip), vehicle: saline with Tween-80
[5] = dose: 400.0 mg/kg/injection, schedule: Q01DX001 (ip), vehicle: saline with Tween-80
[6] = dose: 400.0 mg/kg/injection, schedule: Q04DX003 (ip), vehicle: saline with Tween-80
[7] = dose: 100.0 mg/kg/injection, schedule: Q01DX001 (ip), vehicle: carboxymethylcellulose (CMC)
[8] = dose: 200.0 mg/kg/injection, schedule: Q01DX001 (ip), vehicle: carboxymethylcellulose (CMC)
[9] = dose: 400.0 mg/kg/injection, schedule: Q01DX001 (ip), vehicle: carboxymethylcellulose (CMC)
[10] = dose: 100.0 mg/kg/injection, schedule: Q01DX009 (ip), vehicle: Klucel (hydroxypropylcellulose) (HPC)
[11] = dose: 100.0 mg/kg/injection, schedule: Q04DX003 (ip), vehicle: Klucel (hydroxypropylcellulose) (HPC)
[12] = dose: 200.0 mg/kg/injection, schedule: Q01DX009 (ip), vehicle: Klucel (hydroxypropylcellulose) (HPC)
[13] = dose: 200.0 mg/kg/injection, schedule: Q04DX003 (ip), vehicle: Klucel (hydroxypropylcellulose) (HPC)
[14] = dose: 400.0 mg/kg/injection, schedule: Q01DX009 (ip), vehicle: Klucel (hydroxypropylcellulose) (HPC)
[15] = dose: 100.0 mg/kg/injection, schedule: Q01DX009 (ip), vehicle: saline with Tween-80
[16] = dose: 100.0 mg/kg/injection, schedule: Q04DX002 (ip), vehicle: Klucel (hydroxypropylcellulose) (HPC)
[17] = dose: 100.0 mg/kg/injection, schedule: Q04DX002 (ip), vehicle: saline with Tween-80
[18] = dose: 200.0 mg/kg/injection, schedule: Q01DX009 (ip), vehicle: saline with Tween-80
[19] = dose: 200.0 mg/kg/injection, schedule: Q04DX002 (ip), vehicle: Klucel (hydroxypropylcellulose) (HPC)
[20] = dose: 400.0 mg/kg/injection, schedule: Q04DX002 (ip), vehicle: Klucel (hydroxypropylcellulose) (HPC)
[21] = dose: 50.0 mg/kg/injection, schedule: Q01DX001 (ip), vehicle: carboxymethylcellulose (CMC)

`NN=C1CCC(=NN)CC1` was tested, and the T/C (dose: 25.0 mg/kg/injection, schedule: Q01DX009 (ip), vehicle: water) was 101 % of control, the T/C (dose: 25.0 mg/kg/injection, schedule: Q04DX003 (ip), vehicle: water) was 109 % of control and the T/C (dose: 50.0 mg/kg/injection, schedule: Q01DX009 (ip), vehicle: water) was 114 % of control. The T/C (dose: 50.0 mg/kg/injection, schedule: Q04DX003 (ip), vehicle: water) was 109 % of control and the T/C (dose: 100.0 mg/kg/injection, schedule: Q04DX003 (ip), vehicle: water) was 114 % of control and 124 % of control.
`CCCCSc1nc2ccccc2[nH]1` was tested, and the T/C [1] was 93 % of control, the T/C [2] was 93 % of control and the T/C [3] was 104 % of control. For the same compound, the T/C [4] was 97 % of control, the T/C [5] was 104 % of control and the T/C [6] was 100 % of control.
With `S=Cc1cccc2c1CCCC2` the T/C (dose: 100.0 mg/kg/injection, schedule: Q01DX009 (ip), vehicle: saline) was 111 % of control, the T/C (dose: 200.0 mg/kg/injection, schedule: Q01DX009 (ip), vehicle: saline) was 100 % of control and the T/C (dose: 400.0 mg/kg/injection, schedule: Q01DX009 (ip), vehicle: saline) was 97 % of control.
In the case of `C/C=C/CC(C/C=C/C)C1CC[N-]CC1.C/C=C/CC(C/C=C/C)C1CC[N-]CC1.[Cl][Pt+2]([Cl])([Cl])[Cl]`, the T/C (dose: 3.13 mg/kg/injection, schedule: Q01DX009 (ip), vehicle: other) is reported as 94 % of control, the T/C (dose: 6.25 mg/kg/injection, schedule: Q01DX009 (ip), vehicle: other) is reported as 87 % of control and the T/C (dose: 12.5 mg/kg/injection, schedule: Q01DX009 (ip), vehicle: other) is reported as 105 % of control.
For `Cc1ccc(S(=O)(=O)N(C)CCC(C)C(=O)NN(C)c2ccccc2)cc1` (centres undefined), the T/C (dose: 75.0 mg/kg/injection, schedule: Q01DX001 (ip), vehicle: saline) was 95 % of control, the T/C (dose: 150.0 mg/kg/injection, schedule: Q01DX001 (ip), vehicle: saline) was 89 % of control and the T/C (dose: 300.0 mg/kg/injection, schedule: Q01DX001 (ip), vehicle: saline) was 90 % of control.
`O=P(N1CCCC1)(N1CC1)N1CC1` was tested, and the T/C (dose: 1.3 mg/kg/injection, schedule: Q01DX Z (ip), vehicle: carboxymethylcellulose (CMC)) was 94 % of control, the T/C (dose: 2.0 mg/kg/injection, schedule: Q01DX Z (ip), vehicle: carboxymethylcellulose (CMC)) was 109 % of control and the T/C (dose: 2.0 mg/kg/injection, schedule: Q01DX Z (ip), vehicle: saline) was 114 % of control and 120 % of control. For the same compound, the T/C (dose: 3.0 mg/kg/injection, schedule: Q01DX Z (ip), vehicle: carboxymethylcellulose (CMC)) was 109 % of control, the T/C (dose: 4.5 mg/kg/injection, schedule: Q01DX Z (ip), vehicle: carboxymethylcellulose (CMC)) was 160 % of control and the T/C (dose: 7.5 mg/kg/injection, schedule: Q01DX Z (ip), vehicle: saline) was 118 % of control.
`O=C1CC(Cc2n[nH]c3c2CCCC3)CC(=O)N1` was tested, and the T/C [7] was 100 % of control, the T/C [8] was 95 % of control and the T/C [9] was 95 % of control.
For `CC(=O)Nc1ccc2c(c1)-c1ccccc1C2=O`, the T/C [2] was 98 % of control, the T/C [4] was 100 % of control and the T/C [6] was 98 % of control.
With `CCOC(=O)C1C(O)=C(P(=O)(C2=C(O)C(C(=O)OCC)C(c3ccc(OC(C)=O)cc3)C(C(=O)O)C2=O)N(CCCl)CCCl)C(=O)C(C(=O)O)C1c1ccc(OC(C)=O)cc1` (centres undefined) the T/C [10] was 97 % of control, the T/C [11] was 98 % of control and the T/C [12] was 102 % of control. For the same compound, the T/C [13] was 98 % of control, the T/C [14] was 102 % of control and the T/C (dose: 400.0 mg/kg/injection, schedule: Q04DX003 (ip), vehicle: Klucel (hydroxypropylcellulose) (HPC)) was 108 % of control.
With `NC(=O)/C=C/C(=O)O` the T/C [1] was 97 % of control, the T/C [15] was 98 % of control and 101 % of control and the T/C [16] was 88 % of control. For the same compound, the T/C [17] was 94 % of control and 97 % of control, the T/C [2] was 92 % of control and the T/C [3] was 108 % of control. For the same compound, the T/C [18] was 98 % of control and 116 % of control, the T/C [19] was 88 % of control and the T/C (dose: 200.0 mg/kg/injection, schedule: Q04DX002 (ip), vehicle: saline with Tween-80) was 97 % of control and 99 % of control. The T/C [4] was 106 % of control, the T/C [5] was 96 % of control and the T/C [20] was 91 % of control. The T/C (dose: 400.0 mg/kg/injection, schedule: Q04DX002 (ip), vehicle: saline with Tween-80) was 90 % of control and the T/C [6] was 94 % of control.
For `CC(=O)N(C(C)=O)c1ccc(N=Nc2ccccc2C)cc1C`, the T/C (dose: 50.0 mg/kg/injection, schedule: Q01DX009 (ip), vehicle: saline with Tween-80) was 94 % of control, the T/C [15] was 86 % of control and the T/C (dose: 100.0 mg/kg/injection, schedule: Q04DX003 (ip), vehicle: saline) was 94 % of control. The T/C [18] was 106 % of control, the T/C (dose: 200.0 mg/kg/injection, schedule: Q04DX003 (ip), vehicle: saline) was 94 % of control and the T/C (dose: 400.0 mg/kg/injection, schedule: Q04DX003 (ip), vehicle: saline) was 92 % of control.
For `COC1OC2COCOC2C(OS(=O)(=O)c2ccc(C)cc2)C1OS(=O)(=O)c1ccc(C)cc1` (centres undefined), the T/C [16] was 100 % of control, the T/C [2] was 89 % of control and the T/C [19] was 95 % of control. For the same compound, the T/C [4] was 86 % of control and the T/C [20] was 92 % of control.
In the case of `COC(=O)c1nn2c(=O)c3cccc4cccc(c43)c2c1C(=O)OC`, the T/C [10] is reported as 95 % of control, the T/C [12] is reported as 98 % of control and the T/C [14] is reported as 100 % of control.
With `CCCCCCOC(N)=O` the T/C (dose: 50.0 mg/kg/injection, schedule: Q01DX009 (ip), vehicle: Klucel (hydroxypropylcellulose) (HPC)) was 96 % of control, the T/C [10] was 96 % of control and the T/C [11] was 96 % of control. For the same compound, the T/C [12] was 96 % of control and the T/C [13] was 96 % of control.
For `CCCCCC(O)C1C(=O)OC(C)C(O)/C=C/C=C/C=C/C=C/C=C(\C)C(O)C(O)C(O)CC(O)CC(O)CC(O)CC(O)CC1O` (centres undefined), the T/C (dose: 0.5 mg/kg/injection, schedule: Q01DX001 (ip), vehicle: saline) was 97 % of control, the T/C (dose: 1.0 mg/kg/injection, schedule: Q01DX001 (ip), vehicle: saline) was 97 % of control and the T/C (dose: 2.0 mg/kg/injection, schedule: Q01DX001 (ip), vehicle: saline) was 95 % of control. The T/C (dose: 4.0 mg/kg/injection, schedule: Q01DX001 (ip), vehicle: saline) was 92 % of control and the T/C (dose: 8.0 mg/kg/injection, schedule: Q01DX001 (ip), vehicle: saline) was 97 % of control.
For `C[P+](c1ccccc1)(c1ccc(Cl)cc1)c1ccc(Cl)cc1`, the T/C (dose: 25.0 mg/kg/injection, schedule: Q04DX002 (ip), vehicle: saline) was 100 % of control, the T/C (dose: 50.0 mg/kg/injection, schedule: Q04DX002 (ip), vehicle: saline) was 95 % of control and the T/C [17] was 116 % of control.
With `CN(CC(=O)C(C#N)c1ccccc1)c1ccccc1` (centres undefined) the T/C [21] was 98 % of control, the T/C [7] was 93 % of control and the T/C [8] was 91 % of control. The T/C [9] was 98 % of control.
For `CC(=O)NC(C)(CCOCc1ccccc1)C(=O)O` (centres undefined), the T/C [21] was 94 % of control, the T/C [7] was 100 % of control and the T/C [8] was 110 % of control. For the same compound, the T/C [9] was 96 % of control.
In the case of `CNCCc1ccc(O)cc1`, the T/C (dose: 100.0 mg/kg/injection, schedule: Q01DX001 (ip), vehicle: saline) is reported as 104 % of control, the T/C (dose: 200.0 mg/kg/injection, schedule: Q01DX001 (ip), vehicle: saline) is reported as 102 % of control and the T/C (dose: 400.0 mg/kg/injection, schedule: Q01DX001 (ip), vehicle: saline) is reported as 104 % of control.
`O=C1CC(CO)CN1CCc1ccccc1` (centres undefined) was tested, and the T/C [2] was 96 % of control, the T/C [4] was 94 % of control and the T/C [6] was 96 % of control.
In the case of `Cc1ccc2[nH]c(CC#N)cc2c1`, the T/C [16] is reported as 104 % of control, the T/C [19] is reported as 93 % of control and the T/C [20] is reported as 100 % of control.
For `CCOC(=O)CC1CCC/C1=N/O` (centres undefined), the T/C (dose: 75.0 mg/kg/injection, schedule: Q01DX009 (sc), vehicle: olive oil, sesame oil, peanut oil) was 98 % of control, the T/C (dose: 150.0 mg/kg/injection, schedule: Q01DX009 (sc), vehicle: olive oil, sesame oil, peanut oil) was 94 % of control and the T/C (dose: 300.0 mg/kg/injection, schedule: Q01DX009 (sc), vehicle: olive oil, sesame oil, peanut oil) was 100 % of control.

From PubChem BioAssay AID248 (DTP/NCI, 2004)
